# Reference: patent publication US5962500A, “Insulin sensitivity with angiotensin II receptor blocking imidazoles” (priority 1994, dated 1999)
# Structures can show the parent of a compound that is named as a salt.
# Columns and labels:
# [1] = system: pressor response to AII; test: Inhibition of the pressor response to AII in conscious dogs; type: in vivo, dog
# Procedure: (§1) The hypotensive effects of 2-butyl-4-chloro-1-[2'-(1H-tetrazol-5-yl)biphenyl-4-yl)methyl]-5-hydroxymethylimidazole sodium salt were compared before and after furosemide administration to conscious dogs. […] Plasma renin activity (PRA) in these animals was 1.5±0.5 ng AI/ml/hr. Four days later, furosemide was given to three of these dogs at 10 mg/kg im at 18 and 2 hours before the experiment and increased PRA to 19.9±7.2 ng AI/ml/hr. […] Thus a combined therapy of these two classes of drugs will be likely to increase the response rate to therapy among hypertensive patients.
# [2] = system: conscious dogs; test: Hypotensive effects in conscious dogs before and after furosemide; type: in vivo, dog
# Procedure: as §1
# [3] = target: AII receptor (rat adrenal cortical microsomes); test: Angiotensin II receptor binding (displacement of 3H-AII); conditions: 2 nM 3H-AII, 1 hour at room temperature
# Procedure: The hormone angiotensin II (AII) produces numerous biological responses (e.g. vasoconstriction) through stimulation of its receptors on cell membranes. […] The reaction mixture contained rat adrenal cortical microsomes (source of AII receptor) in Tris buffer and 2 nM of ^3 H-AII with or without potential AII antagonist. This mixture was incubated for 1 hour at room temperature and the reaction was subsequently terminated by rapid filtraton and rinsing through glass micro-fibre filter. Receptor-bound ^3 H-AII trapped in filter was quantitiated by scintillation counting.
# [4] = system: awake rats made hypertensive by ligation of the left renal artery; test: Antihypertensive effects in renal hypertensive rats; type: in vivo, rat
# Procedure: This procedure increases blood pressure by increasing renin production with consequent elevation of AII levels. Compounds are administered orally at 100 mg/kg and/or intravenously via a cannula in the jugular vein at 10 mg/kg. Arterial blood pressure is continuously measured directly through a carotid artery cannula and recorded using a pressure transducer and a polygraph. Blood pressure levels after treatment are compared to pretreatment levels to determine the antihypertensive effects of the compounds (See Table 1).
# Compounds listed in Table 2 were tested in the same manner as described for Table 1, except that in the test for antihypertensive effects in renal hypertensive rats, the compounds were administered orally at 30 mg/kg and intravenously at 3 mg/kg.
# [5] = system: patients with severe hypertension; test: Euglycemic hyperinsulinemic glucose clamp (insulin sensitivity); type: in vivo, human
# Procedure: (§2) At the time of the study only a three day wash-out period was allowed due to the severity of their hypertension.
# (§3) A euglycemic glucose clamp procedure was performed three days after the initial screening, and after withdrawl from previous antihypertensive medications.
# The euglycemic hyperinsulinemic glucose "clamp" was performed using a modification of the method described by DeFronzo, et al. Am. J. Physiol. 1979:237: E214-23, as previously detailed by Moan, et al., Metabolism, in press. Insulin was infused at a fixed rate of 1 mU/kg/min. […] This index is a ratio of the glucose disposal rate to the mean level of insulin during the last 20 minutes of the glucose clamp multiplied by 100, and is given arbitrary units. Blood for baseline adrenaline and noradrenaline were sampled in duplicate and the results averaged.
# [6] = system: patients with severe hypertension; test: Blood pressure and heart rate (oscillometric); type: in vivo, human; conditions: after Losartan
# Procedure: as §2, §3
# (§4) Fasting glucose was determined enzymatically, using a glucose dehydrogenase method and a Cobas Bio analyzer (Roche, Basel Switzerland). A Reflolux II (Mannheim Boehringer GmbH, Mannheim, Germany) was utilized to measure glucose concentration during the glucose clamp procedure (within run coefficient of variation <3% in our laboratory). Fructosamine was determined by calorimetric method. Insulin was measured by radioimmunoassay technique, using a specific antibody from Linco Research Inc. (St. Louis, Mo., USA). The lower limit of detection is 5 mU/l cross reactivity with proinsulin less than 1% and intra-assay coefficient of variation below 9% at all levels. Plasma catecholamines from specialized venous blood were measured by the radioenzymatic technique of Peuler Johnson as detailed in Kjelsen et al., Scan. J. Clin. Invest. 1993:42:217-23. Blood pressure and heart rate were measured oscillometrically with an Omega 1000™ Adult/Pediatric Blood Pressure Recorder (INVIVO Research Laboratories Inc., Tulsa Okla., USA).
# [7] = system: patients with severe hypertension; test: Fasting glucose, fructosamine and insulin; type: in vivo, human; conditions: after Losartan
# Procedure: as §2, §3, §4
# [8] = system: patients with severe hypertension; test: Baseline plasma catecholamines (radioenzymatic); type: in vivo, human
# Procedure: as §2, §3
# The euglycemic hyperinsulinemic glucose "clamp" was performed using a modification of the method described by DeFronzo, et al. Am. J. Physiol. 1979:237: E214-23, as previously detailed by Moan, et al., Metabolism, in press. Insulin was infused at a fixed rate of 1 mU/kg/min. This technique for measuring the glucose disposal rate has a day-to-day coefficient of less than 5% percent. […] The steady state levels of insulin varied from one person to another, and as a result the insulin sensitivity index was also calculated. This index is a ratio of the glucose disposal rate to the mean level of insulin during the last 20 minutes of the glucose clamp multiplied by 100, and is given arbitrary units. Blood for baseline adrenaline and noradrenaline were sampled in duplicate and the results averaged.
# as §4
# [9] = system: arterial pressure; conditions: cited from earlier work
# [10] = system: renal vasoconstrictor effect of NSAIDs; conditions: cited from earlier work
# [11] = system: effects of AII on the blood pressure of pithed rats; conditions: cited from earlier work
# [12] = system: Plasma renin activity; test: Plasma renin activity (PRA) in conscious dogs; type: in vivo, dog; conditions: furosemide 10 mg/kg im at 18 and 2 hours before; three dogs; before furosemide 1.5±0.5
# Procedure: as §1
smiles,measurement,setting,value
CCCCc1nc(Cl)c(CO)n1Cc1ccc(-c2ccccc2-c2nn[nH]n2)cc1 [2-butyl-4-chloro-1-[2'-(1H-tetrazol-5-yl)biphenyl-4-yl)methyl]-5-hydroxymethylimidazole sodium salt],inhibition of pressor response to AII,"[1]; after furosemide, cumulative iv, same doses",inhibited the pressor response to AII at the two higher doses
same,inhibition of pressor response to AII,"[1]; before furosemide, AII 0.1 μg/kg iv, 10 min post dose, cumulative iv 0.3 to 3 mg/kg",effective in inhibiting the pressor response to AII
same,blood pressure lowering,"[2]; conscious dogs after furosemide 10 mg/kg im at 18 and 2 hours before, cumulative iv, same doses",significant decrease in blood pressure in a dose-dependent manner
same,blood pressure lowering,"[2]; normotensive conscious dogs, before furosemide, cumulative iv 0.3 to 3 mg/kg, n=4",did not lower blood pressure
CCCCc1nc(Cl)c(C(=O)O)n1Cc1ccc(-c2ccccc2-c2nn[nH]n2)cc1 [EXP-3174],IC50,[3],11 nM
same,"Antihypertensive Effects in Renal Hypertensive Rats, Intravenous Activity","[4]; Table 2, 3 mg/kg",+ (Significant decrease in blood pressure at 3.0 mg/kg or less)
same,"Antihypertensive Effects in Renal Hypertensive Rats, Oral Activity","[4]; Table 2, 30 mg/kg",+ (Significant decrease in blood pressure at 30 mg/kg or less)
"CCCCc1nc(Cl)c(CO)n1Cc1ccc(-c2ccccc2-c2nnn[nH]2)cc1 [Losartan, 2-n-butyl-4-chloro-5-hydroxymethyl-1-[(2'-(1H-tetrazol-5-yl)biphenyl-4-yl)methyl]imidazole]",increase in glucose disposal rate,"[5]; Losartan vs baseline, p<0.05",27%
same,glucose disposal rate,"[5]; after Losartan 50-100 mg oral once a day, average about 6 weeks, baseline 6.2±2.6, p<0.05",7.9±2.6 mg/kg×min
same,average plasma insulin level during second clamp,"[5]; insulin infused 1 mU/kg/min, end of Losartan monotherapy, first clamp 85±11",80±7 mU/l
same,baseline heart rate,"[6]; before treatment 65±9, n.s.",68±12 beats/min
same,baseline mean blood pressure,"[6]; before treatment 132±10, p<0.05",119±13 mmHg
same,fasting glucose,"[7]; baseline 5.0±0.3, non-significant",4.8 ± 0.1 mmol/L
same,fasting serum insulin,"[7]; baseline 12±3, unchanged",12±2 mU/l
same,fructosamine,"[7]; baseline 227±18, non-significant",217 ± 11 µmol/L
same,decrease in baseline plasma noradrenaline,"[8]; Losartan vs before treatment, p<0.05",40%
same,plasma adrenaline,"[8]; after Losartan, before treatment 0.23±0.10, n.s.",0.22 ± 0.11 nmol/L
same,baseline plasma noradrenaline,"[8]; after Losartan, before treatment 1.87±0.53, p<0.05",1.11 ± 0.13 nmol/L
same,"Antihypertensive Effects in Renal Hypertensive Rats, Intravenous Activity","[4]; Table 1, 10 mg/kg",+ (Significant decrease in blood pressure at 10 mg/kg or less)
same,"Antihypertensive Effects in Renal Hypertensive Rats, Oral Activity","[4]; Table 1, 100 mg/kg",+ (Significant decrease in blood pressure at 100 mg/kg or less)
"CNCC(=O)N[C@@H](CCCN=C(N)N)C(=O)N[C@H](C(=O)N[C@@H](Cc1ccc(O)cc1)C(=O)N[C@H](C(=O)N[C@@H](Cc1cnc[nH]1)C(=O)N1CCC[C@H]1C(=O)N[C@@H](C)C(=O)O)C(C)C)C(C)C [Saralasin, [Sar^1, Ala^8] AII]",oral efficacy,[9]; oral doses,oral doses being ineffective
same,duration of pharmacological effects,[9]; parenteral administration,relatively short-lasting
same,effect on arterial pressure,[9]; pressure dependent on circulating AII,lower arterial pressure in mammals and man
same,pressor effects,[9]; pressure not sustained by AII,generally elicits pressor effects when the pressure is not sustained by AII
same,inhibition of renal vasoconstrictor effect of indomethacin,[10]; dogs,inhibit the renal vasoconstrictor effect
same,inhibition of renal vasoconstrictor effect of meclofenamate,[10]; dogs,inhibit the renal vasoconstrictor effect
same,antagonism of the actions of AII,[11]; pithed rats,one of the most potent competitive antagonists of the actions of AII
same,agonistic actions,"[11]; rat, in vivo",possesses agonistic actions of its own
C[C@H](CS)C(=O)N1CCC[C@H]1C(=O)O [captopril],reversal of renal vasoconstrictor effect of indomethacin,[10]; dogs with non-hypotensive hemorrhage,reverse the renal vasoconstrictor effect of indomethacin
NS(=O)(=O)c1cc(C(=O)O)c(NCc2ccco2)cc1Cl [furosemide],Plasma renin activity (PRA),[12],19.9±7.2 ng AI/ml/hr
